From US20140329275A1, “BIOCATALYSIS CELLS AND METHODS” (REGENTS OF THE UNIVERSITY OF MINNESOTA, priority 2011, published 2014)

Assays:
[1] = target: IPDC (Salmonella enterica, UniProt H9L492); details: ketoleucine vs ketovaline
[2] = system: KIVD; details: Yep et al., Bioorg. Chem. 34:325-336 (2006); cited from earlier work

IPDC, sequence (H9L492 1-550): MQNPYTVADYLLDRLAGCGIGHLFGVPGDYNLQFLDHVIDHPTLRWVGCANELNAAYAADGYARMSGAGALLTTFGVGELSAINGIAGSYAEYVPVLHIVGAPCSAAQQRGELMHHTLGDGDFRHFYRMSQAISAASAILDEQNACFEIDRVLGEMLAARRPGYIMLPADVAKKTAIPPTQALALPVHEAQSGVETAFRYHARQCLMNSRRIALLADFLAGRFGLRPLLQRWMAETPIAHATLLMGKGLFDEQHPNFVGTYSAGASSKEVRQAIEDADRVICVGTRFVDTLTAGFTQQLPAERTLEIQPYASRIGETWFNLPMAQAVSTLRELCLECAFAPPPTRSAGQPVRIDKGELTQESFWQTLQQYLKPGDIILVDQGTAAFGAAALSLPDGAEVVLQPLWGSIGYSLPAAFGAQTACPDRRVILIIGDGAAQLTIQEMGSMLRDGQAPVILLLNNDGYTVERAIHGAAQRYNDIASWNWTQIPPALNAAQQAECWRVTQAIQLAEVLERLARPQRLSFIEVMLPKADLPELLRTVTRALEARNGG

Row | SMILES | specificity constant kcat/Km of IPDC, fold higher than towards ketovaline [1] [fold] | Km [2] [mM] | kcat of KIVD [2] [s⁻¹]
1 | CC(C)CC(=O)C(=O)O [ketoleucine] | 4 | 37 | 49
2 | CC(C)C(=O)C(=O)O [ketovaline] | – | 2.8 | 48
